The subject of assay [1] is MCF7. Description: Inhibition of cell proliferation of human MCF7 cells incubated for 24 hrs. Type of assay: functional, cell-based. The conditions noted are these: MCF7, 24 h.
Assay [2] has as its system NCI-H1299. Kind of assay: Inhibition of cell proliferation of human H1299 cells at 5 to 20 incubated for 24 hrs. Type of assay: functional, cell-based.
The target in another assay is T1, Protein phosphatase 1D (Homo sapiens, UniProt O15297).
T1 sequence (O15297 whole entry): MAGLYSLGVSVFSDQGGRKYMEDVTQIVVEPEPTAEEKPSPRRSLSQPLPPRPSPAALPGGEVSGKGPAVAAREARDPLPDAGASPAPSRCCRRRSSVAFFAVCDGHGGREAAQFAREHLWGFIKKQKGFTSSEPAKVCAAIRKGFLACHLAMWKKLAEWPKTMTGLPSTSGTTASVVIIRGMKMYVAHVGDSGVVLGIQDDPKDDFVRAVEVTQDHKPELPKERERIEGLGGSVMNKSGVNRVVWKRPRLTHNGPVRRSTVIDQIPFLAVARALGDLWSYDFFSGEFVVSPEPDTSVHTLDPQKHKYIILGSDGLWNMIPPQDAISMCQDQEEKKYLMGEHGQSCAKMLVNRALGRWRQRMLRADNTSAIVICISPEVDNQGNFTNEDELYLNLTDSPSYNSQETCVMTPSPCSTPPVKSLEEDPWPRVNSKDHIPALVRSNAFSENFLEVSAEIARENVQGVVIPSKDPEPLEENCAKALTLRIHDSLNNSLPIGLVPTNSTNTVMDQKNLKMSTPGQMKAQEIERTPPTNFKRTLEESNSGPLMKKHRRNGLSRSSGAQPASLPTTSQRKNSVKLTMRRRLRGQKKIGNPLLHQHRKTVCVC
Description: Inhibition of His-tagged PPM1D (1 to 420 residues) (unknown origin) expressed in Escherichia coli BL21 (DE3) pLysS cells using Ac-VEPPLS(P)QETFSDLW-NH2 substrate.

The subject of assay [3] is NCI-H1299. Description: Inhibition of cell proliferation of human H1299 cells overexpressing HA-PPM1D at 5 to 20 incubated for 24 hrs. Type of assay: functional, cell-based.
In assay [4] the target is T2, Protein phosphatase 1A (Homo sapiens) (UniProt P35813).
T2 sequence (whole entry): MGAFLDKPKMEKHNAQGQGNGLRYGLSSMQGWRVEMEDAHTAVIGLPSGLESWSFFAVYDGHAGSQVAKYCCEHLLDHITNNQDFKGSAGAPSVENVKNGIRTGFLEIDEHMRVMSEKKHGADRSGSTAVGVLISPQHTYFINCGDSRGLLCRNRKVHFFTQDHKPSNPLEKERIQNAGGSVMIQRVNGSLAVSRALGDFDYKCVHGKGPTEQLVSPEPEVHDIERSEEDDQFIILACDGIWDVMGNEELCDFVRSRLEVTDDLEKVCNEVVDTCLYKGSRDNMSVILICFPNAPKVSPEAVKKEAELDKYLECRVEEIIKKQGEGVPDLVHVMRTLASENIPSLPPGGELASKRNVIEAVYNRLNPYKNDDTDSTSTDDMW
Kind of assay: Inhibition of His-tagged PPM1A (unknown origin) at 2 to 10 uM using Ac-TDDE(Nle)T(P)GY(P)VAT-NH2 substrate.

The subject of assay [5] is MCF7. Description: Inhibition of cell proliferation of human MCF7 cells at > 20 uM incubated for 24 hrs. Type of assay: functional, cell-based.
Assay [6] relates to MCF7. Description: Induction of cell cycle arrest in human MCF7 cells assessed as increase in cell accumulation at subG1 phase incubated for 24 hrs by propidium iodide staining based flow cytometry. The format is functional.
Assay [7] has as its system MCF7. Kind of assay: Effect on PPM1D protein expression in UV irradiated human MCF7 cells by Western blotting method. The format is functional, cell-based. (A western blot detects proteins with antibodies after separation by electrophoresis.)
For assay [8], the species on record is Homo sapiens. Kind of assay: Inhibition of PP1 (unknown origin) at 2 to 10 uM using Ac-WGAKAKKT(P)PKAKK-NH2 substrate.
The species entered for assay [9] is Homo sapiens. Description: Inhibition of PP2A (unknown origin) at 2 to 10 uM using Ac-TDDE(Nle)T(P)GY(P)VAT-NH2 substrate.
The test system of assay [10] is MCF7. Kind of assay: Induction of apoptosis in human MCF7 cells incubated for 24 hrs by Annexin-V staining based flow cytometry. Type of assay: functional, cell-based. (In flow cytometry, cells or beads pass a laser one at a time.)
Assay [11] concerns MCF7. Description: Induction of cell cycle arrest in human MCF7 cells assessed as increase in cell accumulation at G2/M phase incubated for 24 hrs by propidium iodide staining based flow cytometry. Type of assay: functional.

This note sets out measurements from ChEMBL document CHEMBL3612007, “Novel inhibitors targeting PPM1D phosphatase potently suppress cancer cell proliferation” (Bioorg Med Chem, 2015).

Active and inactive are the calls of the source. The calls are words filed in the database; no cut-off is given here.

A word on the IC50: it is the concentration that gives 50% inhibition. A high value points to lower potency.

As for `Cc1ncc(Cl)cc1NCc1ccc(C(=O)N[C@@H](CC2CCCC2)C(=O)NC2CC2)s1`, the IC50 in the assay on MCF7 [1] was found to be 9.5 µM; on Protein phosphatase 1D it was 0.0863 µM. In addition, the inhibition entry in the assay on NCI-H1299 [2] and with NCI-H1299 [3] was “inactive” in each case.

On to `CC[Si](CC)(CC)O[C@@H]1CCC[C@@H]2[C@@H]1C[C@H](O[Si](C)(C)C(C)(C)C)C[C@@]2(C)CO`, for which inhibition in the assay with MCF7 [1] was half-maximal at 36.1 µM (IC50).

For the molecule `CC[Si](CC)(CC)O[C@@H]1C[C@H](C)C[C@@H]2[C@@H]1C[C@H](O[Si](C)(C)C(C)(C)C)[C@@H]1[C@](C)(CO)C[C@H](O)C[C@@]21C`, the IC50 with MCF7 [1] came to 26.9 µM; at Protein phosphatase 1D it was 0.0869 µM.

`CC[Si](CC)(CC)O[C@@H]1CCC[C@@H]2[C@@H]1C[C@H](O[Si](C)(C)C(C)(C)C)C[C@@]2(C)C(=O)O`: the inhibition result (in [4]; in the assay filed under Homo sapiens [8]; in the assay listed under Homo sapiens [9]; with NCI-H1299 [2]) was “inactive” each time. The same molecule displayed an IC50 with MCF7 [1] of 7.4 µM. Besides, the inhibition result in the assay with MCF7 [5] and with NCI-H1299 [3] was “Active” in each case. Moreover, the outcome in the assay with MCF7 [6], with MCF7 [10] and with MCF7 [11] was Active. Further, the outcome in the assay on MCF7 [7] was inactive.
